± gives the expanded uncertainty stated by the source.
Key:
[1] = Crystal
[2] = molar enthalpy of vaporization or sublimation; details: 298.15 K, Crystal
[3] = stuart scientific smp2 calibrated apparatus

Compound	Normal melting temperature ([1]; DTA) [°C]	molar enthalpy ([2]; Vacuum drop calorimetry) [kJ/mol]	Normal melting temperature [1, 3] [°C]	molar enthalpy ([2]; Unpublished results by the authors) [kJ/mol]
N#Cc1ccccc1C(=O)O [2-cyanobenzoic acid]	232.6 ± 0.5	115 ± 3	–	–
N#Cc1cccc(C(=O)O)c1 [3-cyanobenzoic acid]	–	117 ± 3	223 ± 1	–
N#Cc1ccc(C(=O)O)cc1 [4-cyanobenzoic acid]	–	–	220 ± 1	113 ± 2
